This is an account of results in US20080250710A1, “Low Light Cultivation Method and Plant Growth Promoting Agent” (priority 2005, published 2008).

Each structure is given as a SMILES string.

The first test relates to houseplant weeping fig (Ficus benzyamina). Description: Low light cultivation of weeping fig: leaf survival ratio. Format: in vivo. Particulars: after four weeks, verdict in words.
Procedure: The inorganic solution was used as a control reagent. (Reagent 1: the inorganic solution in which aminolevulinic acid is dissolved, Reagent 2: the inorganic solution in which citric acid is dissolved, and Reagent 3: the inorganic solution in which citric acid and sucrose are dissolved).
Note that, in respective reagents, the citric acid concentration was 5 mM, the sucrose concentration was 3%, and the aminolevulinic acid concentration was 100 ppm. The reagents containing citric acid (Reagent 2 and Reagent 3) were adjusted to pH 5.0 with potassium hydroxide.
Low light cultivation was conducted using the reagents and a houseplant weeping fig, with two methods below.
Regular cultivation: four commercially available weeping fig plants in No. 4-sized pots were prepared. The four reagents (Reagents 1 to 3 and the control reagent) were given to the respective plants in an amount of 50 mL once (Monday) every week. Watering was performed in an amount of 50 mL twice (Wednesday and Friday) every week. […]
The effect of each reagent was evaluated by counting the number of leaves for each pot and calculating the survival ratio (%) of leaves every week. Note that the leaf survival ratio (%) was calculated as a “survival ratio (%)=the number of counted weeping fig leaves/the number of weeping fig leaves before low light cultivation (initial value)×100”.
Turning to `O=C(O)CC(O)(CC(=O)O)C(=O)O` [Citric acid, citric acid], the “effectiveness to low light cultivation (leaf survival ratio versus control reagent)” value is listed as “effective”.

The next test relates to morning glory (Pharbitis nil var. Violet) seedlings. The experiment in a line: Low light cultivation experiment: number of days until lodging of morning glory young plants. The format is in vivo. Particulars: organic acid 5 mM in 500-fold dilution of VIGOR LIFE V, pH 5.0; 250 mL per pot once every four days; 200 lux, 23° C. Here is the method: As a plant, morning glory (Pharbitis nil var. Violet) seedlings (day 7 after germination) were used. Experiments were conducted in an incubator (low temperature of 23° C.) in daily cycles where a light period (200 lux) is 14 hours and a dark period is 10 hours in a day. Morning glory seeds (purchased from Marutane Co., Ltd., Kyoto) were sown in black plastic pots (commercially available No. 105 size: diameter 105 cm, height 90 cm). Vermiculite was used as culture medium (the wet weight of vermiculite in a pot was 350 g).
250 mL of a test solution was given to each pot once every four days. Test data was taken from 10 morning glory seedlings (young plants) grown per pot. After start of the test, the number of seedlings that lodged was counted every day. A lodging criterion is that the hypocotyl (a rachis under a cotyledon) of a young plant lodges and the cotyledon contacts culture medium, or the whole cotyledon died. Lodged young plants were removed each time. Note that the effect was evaluated using the average value of the numbers of days until lodging. The average value was calculated as follows. For example, when three plants lodged on day 9, four plants lodged on day 10, and three plants lodged on day 11, then the average value is 10.0 (=(9×3+10×4+11×3)/10).
Eight organic acids (aminolevulinic acid, citric acid, malic acid, succinic acid, tartaric acid, acetic acid, oxalic acid, and lactic acid) were prepared. Each organic acid was dissolved in a 500-fold dilution of a liquid fertilizer (VIGOR LIFE V) (a solution in which VIGOR LIFE V was diluted 500-fold with distilled water). Thereafter, the solution was adjusted to pH 5.0 with potassium hydroxide. Note that the organic acid concentration of each test solution was 5 mM.
A 500-fold dilution of VIGOR LIFE V was used as a control test solution.
The eight test solutions and the control test solution were used to conduct the low light cultivation experiment. Note that the upper row of Table 1 indicates the organic acids contained in the test solutions (the control test solution contained no organic acid). Also, the lower row of Table 1 indicates the average values (days) of the numbers of days until lodging of the morning glory young plants.
Six sugars (sucrose, glucose, fructose, trehalose, palatinose, and xylose) were prepared. Each sugar was dissolved in a 500-fold dilution of a liquid fertilizer (VIGOR LIFE V) (a solution in which VIGOR LIFE V was diluted 500-fold with distilled water). Note that the sugar concentration of each test solution was 3%.
Also, a 500-fold dilution of VIGOR LIFE V was used as a control test solution. […]
Note that the upper row of Table 2 indicates the sugars contained in the test solutions (the control test solution contained no sugar). Also, the lower row of Table 2 indicates the average values (days) of the numbers of days until lodging of the morning glory young plants.
For `O=C(O)CC(O)C(=O)O` (centres unmarked) [Malic acid, malic acid], the “Average value (days) of the numbers of days until lodging” value (“Average value (days)” for short) came out at 11.1 days.

`O=C(O)CCC(=O)O` [Succinic acid, succinic acid]: the “Average value (days)” value came out at 10.4 days.

Consider `O=C(O)C(O)C(O)C(=O)O` (centres unmarked) [Tartaric acid, tartaric acid], for which the “Average value (days)” value is on record as 4.9 days.

In the case of `CC(O)C(=O)O` (centres unmarked) [Lactic acid, lactic acid], the “Average value (days)” value is 6.1 days.

On to `O=C(O)CC(O)(CC(=O)O)C(=O)O` [Citric acid, citric acid], for which the “Average value (days)” value came to 12.9 days.

For `CC(=O)O` [Acetic acid, acetic acid], the “Average value (days)” value came out at 3.9 days.

As to `NCC(=O)CCC(=O)O` [Aminolevulinic acid, aminolevulinic acid, reference compound], the “Average value (days)” value came out at 2.5 days.

For `O=C(O)C(=O)O` [Oxalic acid, oxalic acid], the “Average value (days)” value is 3.7 days.

The test is the same for the next values; noted with them: organic acid 5 mM, pH 5.0; verdict in words.
With `O=C(O)CC(O)C(=O)O` (centres unmarked) [Malic acid, malic acid], the “effectiveness to low light cultivation (days until lodging versus control test solution)” value was “effective”.

As to `O=C(O)CCC(=O)O` [Succinic acid, succinic acid], the “effectiveness to low light cultivation (days until lodging versus control test solution)” value is “effective”.

On to `O=C(O)CC(O)(CC(=O)O)C(=O)O` [Citric acid, citric acid], for which the “effectiveness to low light cultivation (days until lodging versus control test solution)” value was “effective”.

The same test, now with this note: sugar 3% in 500-fold dilution of VIGOR LIFE V; 250 mL per pot once every four days; 200 lux, 23° C.
On to `O=C(CO)[C@@H](O)[C@H](O)[C@H](O)CO` [Fructose, fructose], for which the “Average value (days)” value is on record as 22.1 days.

With `OC[C@H]1O[C@H](O[C@H]2O[C@H](CO)[C@@H](O)[C@H](O)[C@H]2O)[C@H](O)[C@@H](O)[C@@H]1O` [Trehalose, trehalose], the “Average value (days)” value was determined as 21.9 days.

With `O=C[C@H](O)[C@@H](O)[C@H](O)CO` [Xylose, xylose], the “Average value (days)” value is reported as 10.1 days.

`OC[C@H]1O[C@@](CO)(O[C@H]2O[C@H](CO)[C@@H](O)[C@H](O)[C@H]2O)[C@@H](O)[C@@H]1O` [Sucrose, sucrose]: the “Average value (days)” value is 25.9 days.

As for `OC[C@H]1O[C@H](OC[C@H]2OC(O)(CO)[C@@H](O)[C@@H]2O)[C@H](O)[C@@H](O)[C@@H]1O` (some centres unmarked) [Palatinose, palatinose], the “Average value (days)” value was 9.6 days.

The same test, now with this note: sugar 3%; verdict in words.
Consider `O=C(CO)[C@@H](O)[C@H](O)[C@H](O)CO` [Fructose, fructose], for which the “effectiveness to low light cultivation (days until lodging versus control test solution)” value was “particularly effective”.

As to `OC[C@H]1O[C@H](O[C@H]2O[C@H](CO)[C@@H](O)[C@H](O)[C@H]2O)[C@H](O)[C@@H](O)[C@@H]1O` [Trehalose, trehalose], the “effectiveness to low light cultivation (days until lodging versus control test solution)” value is “particularly effective”.

For `OC[C@H]1O[C@@](CO)(O[C@H]2O[C@H](CO)[C@@H](O)[C@H](O)[C@H]2O)[C@@H](O)[C@@H]1O` [Sucrose, sucrose], the “effectiveness to low light cultivation (days until lodging versus control test solution)” value is recorded as “particularly effective”.
